From paper PMC7407491, “The Addition of a Synthetic LPS-Targeting Domain Improves Serum Stability While Maintaining Antimicrobial, Antibiofilm, and Cell Stimulating Properties of an Antimicrobial Peptide” (Biomolecules, 2020)

Assays:
MRSA = format: cell-based, Methicillin-resistant Staphylococcus aureus; conditions: 2 h, pH 7
Method: (§1) Veterinary clinical isolates, including Salmonella typhimurium, multi-drug resistant Escherichia coli, methicillin-resistant Staphylococcus aureus (MRSA), and methicillin-resistant Staphylococcus pseudointermedius (MRSP), were kindly provided by Dr. H. Cai (Department of Pathobiology, University of Guelph, ON, Canada). An antibiogram for these strains is available in the supplementary text (Table S1). Gram-negative strains were cultured in Luria−Bertani (LB) broth. Gram-positive strains were cultured in Tryptic soy broth (TSB). Both cultures were grown under aerobic conditions at 37 °C.
(§2) The minimum bactericidal concentration (MBC) of SynPG-1 against the tested pathogens was identified through a broth macrodilution antimicrobial assay as previously described, with some modification. […] The buffer volume was adjusted to accommodate the addition of SynPG-1 and PG-1 so that the final solution volume was 0.5 mL for each tested concentration. Final peptide concentrations ranged from 0.1 µg/mL to 8 µg/mL. PG-1 at the known MBC (2 µg/mL E. coli; 4 µg/mL S. typhimurium; 0.5 µg/mL MRSP; 0.5 µg/mL MRSA) was considered the in-house positive control, while the suspension containing no peptide was considered the negative control. Experimental and control tubes were incubated for 2 h at 37 °C without shaking to allow for bactericidal action to occur. […] Colony numbers from each plate were recorded. […]

MRSP = format: cell-based, Methicillin-resistant Staphylococcus pseudointermedius; conditions: 2 h, pH 7
Method: as §1, §2

MRSA biofilm = assay: Biofilm inhibition assay, crystal violet; format: cell-based, Methicillin-resistant Staphylococcus aureus
Method: Plates were placed in a static incubator at 37 °C for 48 h; the time required for untreated wells to form biofilm. After incubation, treated media was removed and wells were rinsed with 155 µL of PBS to remove planktonic cells. After sufficient air drying of wells, 150 µL of 0.1% Crystal violet stain was added to each well and incubated at room temperature for 30 min, after which, dye was removed and wells were rinsed again with 155 µL of PBS. After sufficient drying of wells, 150 µL of 70% ethanol solution was added to each well and incubated at room temperature for 30 min. After 30 min, 100 µL of each well was added to a new 96-well plate and absorbance was measured at an OD of 590 nm.

[1] = system: pre-formed S. typhimurium biofilm; assay: Pre-formed biofilm destruction assay, crystal violet; format: cell-based, Salmonella typhimurium; conditions: 64 µg/mL, 3 h treatment, crystal violet
Method: To test the destruction of preformed biofilms, in a 96-well plate, 15 µL of overnight culture, of either E. coli, S. typhimurium, or MRSA, was added to 150 µL of minimal salt media (40 mM […]; 22 mM KH2PO4; […] NH4CL; 740 mM NaCl; 2 mM MgSO4; 0.1 mM CaCl2; 22 mM supplemented with D-Glucose) in each well. Plates were placed in a static incubator at 37 °C for 48 h; the time required for untreated wells to form biofilm. After formation, minimal salt media was removed and wells were treated with 155 µL of minimal salt media containing PG-1 or SynPG-1. […] Plates were placed in a static incubator at 37 °C for 3 h. After 3 h, treated media was removed and wells were rinsed with 155 µL of PBS to remove planktonic cells. After sufficient drying of wells, 150 µL of 0.1% crystal violet stain was added to each well and incubated at room temperature for 30 min, after which dye was removed and wells were rinsed again with 155 µL of PBS. After sufficient drying of wells, 150 µL of 70% ethanol solution was added to each well and incubated at room temperature for 30 min. After 30 min, 100 µL of each well was added to a new 96-well plate and absorbance was measured at an OD of 590 nm.

IPEC-J2 cells = assay: In vitro cell migration, transwell assay; format: cell-based, porcine; conditions: transwell 8-micron, serum-free DMEM F-12, 5 to 20 µg/mL, 16 h, Hoechst 33342 count; SynPG-1 not significant at higher concentrations
Method: A cell line, established from intestinal porcine enterocytes, isolated from the jejunum of a neonatal unsuckled piglet (IPEC-J2 cells, DSMZ), was grown in monolayer culture in Dulbecco’s modified Eagle’s medium (high glucose), supplemented with 10% fetal bovine serum (FBS) from Invitrogen, 100 IU/mL penicillin, and 100 µg/mL streptomycin. Cultures were maintained in a 5% CO2 humidified atmosphere at 37 °C and passaged every 2–3 days, with detachment via the Trypsin-EDTA solution (Sigma).
To evaluate migration of IPEC-J2 cells, 8-micron pore-sized cell culture transwell inserts were used (Millipore Inc, Temecula, CA, USA). A total of 1 × 10^5 cells were plated in the upper inserts of the transwell and placed within 24-well plates, containing serum-free DMEM F-12 in the absence and presence of SynPG-1 or PG-1, at concentrations ranging from 5 µg/mL to 20 µg/mL. After incubation for 16 h, the cells were fixed with 4% (w/v) paraformaldehyde. […] Migration was quantified by cell enumeration through Hoechst 33342 staining of cell nuclei (Thermo Fisher Scientific, Mississauga, ON, Canada). The results are represented as the relative fold increase in migrated cells when compared to the baseline migration of IPEC-J2 cells in serum-free media after 16 h.

[2] = 25% porcine intestinal fluid (pH 6.5) in PBS, 1 mg/mL peptide, 1 h 37 °C with shaking; residual activity vs E. coli at 20 µg/mL, colony count; three independent experiments
Method: Porcine digestive fluids were collected, as previously described by Wang et al. [44]. […] The gastrointestinal tract was kept at 4 °C during dissection, and collection of contents from the stomach and upper small intestine (duodenum and jejunum) was conducted within 5 h of sacrifice. Contents were centrifuged at 10,000 rpm (9600× g) for 10 min at 4 °C, and supernatant fluid was collected and stored at −80 °C until its use in the stability experiment. The pH of the collected supernatants were 3.5 and 6.5 for gastric fluid and duodenum fluid, respectively.
Procedures similar to those used by Egger et al. [45] were used for this experiment. […] Suspension containing no peptide was considered the negative control. After incubation, 10 µL of the incubated solutions was added for a total volume of 0.5 mL, consisting of 20 µL of mid-logarithmic phase E. coli cells, diluted to a concentration of about 1 × 10^5 CFU/mL, and 470 µL of 20 mM sodium phosphate buffer (pH 7). […] Stability in porcine digestive fluid was evaluated as the relative colony growth on plates from bacterial grown with digestive fluid and peptide treatments, in comparison to plates grown from bacteria grown with digestive fluid alone.
Stability was evaluated by comparing the mean growth of colonies on plates treated with peptides incubated in digestive fluids to colonies grown when treated without peptide. […]

A. baumanni biofilm = conditions: tested alone or with an antibiotic; reduction in crystal violet staining only; cited from earlier work
Source text: Although many have studied the antimicrobial potential of PG-1, its anti-biofilm properties have only been tested against a few species, including Streptococcus mutans and Acinetobacter baumanni. Since the composition of the extracellular polymeric substance (EPS) of a biofilm can vary widely from species to species, further investigation into the PG-1′s spectrum of antibiofilm activity is necessary. To do so, we evaluated the effect of PG-1 and SynPG-1 on the disruption and formation of biofilms from three pathogenic MDR bacteria and measured the remaining viable pathogens. ...

In the case of `CC(C)C[C@H](NC(=O)[C@H](CCCNC(=N)N)NC(=O)CNC(=O)CNC(=O)[C@@H](N)CCCNC(=N)N)C(=O)N[C@H]1CSSC[C@@H](C(=O)N[C@H](C(=O)NCC(=O)N[C@@H](CCCNC(=N)N)C(N)=O)C(C)C)NC(=O)[C@H](C(C)C)NC(=O)[C@@H]2CSSC[C@H](NC(=O)[C@H](Cc3ccc(O)cc3)NC1=O)C(=O)N[C@@H](CCCNC(=N)N)C(=O)N[C@@H](CCCNC(=N)N)C(=O)N[C@@H](CCCNC(=N)N)C(=O)N[C@@H](Cc1ccccc1)C(=O)N2` [PG-1, Protegrin-1], the MBC (MRSA) is reported as 0.5 (0.18) μg/mL, the MBC (MRSP) is reported as 0.5 (0.18) μg/mL and the “Concentration at which inhibition of biofilm formation was seen” value (MRSA biofilm; minimal salt media, 48 h 37 °C static, crystal violet OD 590 nm, p < 0.05 vs control, concentration dependent) is reported as 8 µg/mL. The “Effect on biofilm formation at the concentration where SynPG-1 began to reduce it” value (MRSA biofilm; same concentration as SynPG-1 onset (2 µg/mL), crystal violet, 48 h) was “significant promotion of biofilm formation”, the “Effect on pre-formed biofilm at 64 µg/mL” value [1] was “did not demonstrate a significant reduction” and the “Concentration at which cell migration increased significantly” value (IPEC-J2 cells) was 20 µg/mL. The “Antimicrobial activity after incubation in 25% porcine intestinal fluid” value [2] was “mean % growth of control increased for SynPG-1 but not PG-1” and the Antibiofilm activity (A. baumanni biofilm) was “no antibiofilm activity”.
